Several values for one entry are separate records, joined by “and”; a condition that tells them apart may be missing. Equal values may be shown once. Entries after “also recorded” stand apart in the source; their conditions may differ. Read-outs that look alike come from different tables or passages of the source.
How the values were obtained:
human MRGPRX2 = target: T1, human MRGPRX2 (Homo sapiens, UniProt Q96LB1); experiment: Intracellular Ca2+ mobilisation assay in HEK293 cells transiently transfected with human MRGPRX2; type: cell-based; settings: for Activation of human MRGPRX2 (increase in intracellular Ca2+): HEK293 cells transfected with human MRGPRX2, fluoroquinolones up to 1000 μg/mL; for EC50: human MRGPRX2-expressing HEK293 cells, mean ± SD of three independent experiments, read-out: EC50 on changes in intracellular Ca2+ levels, Human MRGPRX2 (converted)
T1 construct: expressed in transfected cells; host or cells: HEK293 (JCRB Cell Bank), transient, pcDNA3.1(+) vector
T1 sequence (Q96LB1 1-330): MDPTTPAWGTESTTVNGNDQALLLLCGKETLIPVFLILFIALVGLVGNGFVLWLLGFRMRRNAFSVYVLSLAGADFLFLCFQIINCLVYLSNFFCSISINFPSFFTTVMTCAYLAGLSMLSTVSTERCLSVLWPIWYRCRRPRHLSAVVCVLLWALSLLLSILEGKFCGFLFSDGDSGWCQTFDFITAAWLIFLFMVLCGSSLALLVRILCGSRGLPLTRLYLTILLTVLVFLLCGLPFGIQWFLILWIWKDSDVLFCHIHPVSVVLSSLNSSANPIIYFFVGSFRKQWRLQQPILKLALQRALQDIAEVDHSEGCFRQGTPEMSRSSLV
Method: (§1) HEK293 cells obtained from the JCRB Cell Bank (Osaka, Japan) were transfected transiently with dog MRGPRD, MRGPRF, MRGPRG, or MRGPRX2 or human MRGPRX2. Lipofectamine 2000 Reagent (Thermo Fisher Scientific Inc.) and pcDNA3.1(+) vector containing each gene were diluted and mixed using Opti-MEM I Reduced Serum Medium (Thermo Fisher Scientific Inc.) to prepare lipid-DNA complexes (final concentrations: lipofectamine 2.5 μL/mL and DNA 2,500 ng/mL). HEK293 cells were detached using TrypLE™ Express (Thermo Fisher Scientific Inc.) and prepared to 7 × 10^5 cells/mL with the lipid-DNA complex. Thereafter, 25 μL cells (1.75 × 10^4 cells/well) were seeded per well in 384-well flat-bottomed plates (Corning Incorporated, Corning, NY, USA) and incubated overnight at 37 °C under 5% CO2 conditions. Cells treated with plasmid-free lipid solution were used as negative control (non-transfected cells).
Test articles were dissolved in HBSS (pH 7.4, Thermo Fisher Scientific Inc., Waltham, MA, USA) supplemented with 20 mM HEPES (Sigma-Aldrich Co. LLC.) and 0.05 vol% bovine serum albumin (BSA, Sigma-Aldrich Co. LLC.). […] Intracellular Ca^2+ levels were analysed using Calcium Kit II-iCellux (Dojindo Molecular Technologies, Inc., Kumamoto, Japan), according to the manufacturer's instructions. HEK293 cells (1.75 × 10^4 cells/well) were loaded with 1.25 mM probenecid and calcium probe for 45 min at 25 °C. Changes in fluorescence intensities before and after addition of the test articles were measured over time using FLIPR Tetra (Molecular Devices, LLC., Sunnyvale, CA, USA) with excitation at 470–495 nm and emission at 515–575 nm. The test articles were added at 10 s after beginning the measurements. Samples were measured in duplicate or quadruplicate. The data were analysed using ScreenWorks (Molecular Devices, LLC. Version 3.2.0.14) to determine the difference between maximal and minimal fluorescence intensity (max–min).
(§2) Data represent the mean ± SD of three animals for distribution study or three independent assays for Ca^2+ mobilisation. EC50 of each test article used in the Ca^2+ mobilisation assay was calculated using the sigmoid Emax model. These analyses were performed by using the SAS System Release 8.2 software (SAS Institute Inc., Cary, NC, USA).

dog MRGPRX2 = dog MRGPRX2 (Canis lupus familiaris, UniProt A0A4Y5P885); experiment: Intracellular Ca2+ mobilisation assay in HEK293 cells transiently transfected with dog MRGPRX2; type: cell-based; settings: for Difference in EC50 values between dog MRGPRX2 and human MRGPRX2: EC50 lower in dog MRGPRX2-expressing cells than in human MRGPRX2-expressing cells; for EC50: mean ± SD of three independent experiments; for Activation of dog MRGPRX2 (increase in intracellular Ca2+): HEK293 cells transfected with dog MRGPRX2, fluoroquinolones up to 1000 μg/mL
Sequence of dog MRGPRX2 (A0A4Y5P885 entry or part of it): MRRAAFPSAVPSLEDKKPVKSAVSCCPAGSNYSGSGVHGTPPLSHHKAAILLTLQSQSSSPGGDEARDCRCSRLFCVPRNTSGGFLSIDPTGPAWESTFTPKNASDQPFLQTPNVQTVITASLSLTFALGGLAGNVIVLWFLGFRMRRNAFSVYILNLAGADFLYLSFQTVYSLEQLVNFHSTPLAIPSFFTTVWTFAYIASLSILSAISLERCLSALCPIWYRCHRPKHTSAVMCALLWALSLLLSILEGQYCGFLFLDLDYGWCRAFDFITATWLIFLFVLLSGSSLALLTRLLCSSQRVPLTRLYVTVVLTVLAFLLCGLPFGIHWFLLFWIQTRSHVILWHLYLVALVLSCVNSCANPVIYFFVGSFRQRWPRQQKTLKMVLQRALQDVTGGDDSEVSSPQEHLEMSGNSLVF
Method: as §1
Test articles were dissolved in HBSS (pH 7.4, Thermo Fisher Scientific Inc., Waltham, MA, USA) supplemented with 20 mM HEPES (Sigma-Aldrich Co. LLC.) and 0.05 vol% bovine serum albumin (BSA, Sigma-Aldrich Co. LLC.). The highest concentration of the fluoroquinolones was set at 1000 μg/mL based on previous reports at which the test substances induced marked intracellular Ca^2+ mobilisation in human MRGPRX2-expressing HEK293 cells[11] or caused histamine release in rat or human mast cells[16],[25],[36]. Intracellular Ca^2+ levels were analysed using Calcium Kit II-iCellux (Dojindo Molecular Technologies, Inc., Kumamoto, Japan), according to the manufacturer's instructions. HEK293 cells (1.75 × 10^4 cells/well) were loaded with 1.25 mM probenecid and calcium probe for 45 min at 25 °C. Changes in fluorescence intensities before and after addition of the test articles were measured over time using FLIPR Tetra (Molecular Devices, LLC., Sunnyvale, CA, USA) with excitation at 470–495 nm and emission at 515–575 nm. The test articles were added at 10 s after beginning the measurements. Samples were measured in duplicate or quadruplicate. The data were analysed using ScreenWorks (Molecular Devices, LLC. Version 3.2.0.14) to determine the difference between maximal and minimal fluorescence intensity (max–min).
as §2

[1] = system: non-transfected HEK293 cells; experiment: Intracellular Ca2+ levels in non-transfected HEK293 cells (negative control cells); type: cell-based, human; settings: 1,000 μg/mL; data excluded from the analysis
Method: as §1, with “Thereafter, 25 μL cells (1.75 × 10^4 cells/well) were seeded per well in 384-well flat-bottomed plates (Corning Incorporated, Corning, NY, USA) and incubated overnight at 37 °C under 5% CO2 conditions. Cells treated with plasmid-free lipid solution were used as negative control (non-transfected cells).” left out
Test articles were dissolved in HBSS (pH 7.4, Thermo Fisher Scientific Inc., Waltham, MA, USA) supplemented with 20 mM HEPES (Sigma-Aldrich Co. LLC.) and 0.05 vol% bovine serum albumin (BSA, Sigma-Aldrich Co. LLC.). […] Intracellular Ca^2+ levels were analysed using Calcium Kit II-iCellux (Dojindo Molecular Technologies, Inc., Kumamoto, Japan), according to the manufacturer's instructions. […] Changes in fluorescence intensities before and after addition of the test articles were measured over time using FLIPR Tetra (Molecular Devices, LLC., Sunnyvale, CA, USA) with excitation at 470–495 nm and emission at 515–575 nm. […] Samples were measured in duplicate or quadruplicate. […]

[2] = system: dispersed canine skin mast cells; parameters: method as in PMID 10864147; settings: cited from earlier work
[3] = parameters: method as in PMID 9635500; settings: cited from earlier work
mouse Mrgprb2 = system: mouse Mrgprb2; parameters: method as in PMID 25517090; settings: cited from earlier work
[4] = EC50 on changes in intracellular Ca2+ levels, Dog MRGPRX2, dog MRGPRX2-expressing HEK293 cells

Compound	Activation of human MRGPRX2 (increase in intracellular Ca2+) (human MRGPRX2)	Difference in EC50 values between dog MRGPRX2 and human MRGPRX2 (dog MRGPRX2)	EC50 (dog MRGPRX2; [4])	Activation of dog MRGPRX2 (increase in intracellular Ca2+) (dog MRGPRX2)	Nonspecific increase in intracellular Ca2+ levels in non-transfected cells [1]	EC50 (human MRGPRX2)	EC50 (dog MRGPRX2; dog MRGPRX2-expressing HEK293 cells, read-out: EC50 on changes in intracellular Ca2+ levels, Dog MRGPRX2 (converted))	Concentration inducing histamine release from dispersed canine skin mast cells [2]	Histamine release in dogs [3]	EC50 in mouse Mrgprb2-expressing cells compared to human MRGPRX2-expressing cells (mouse Mrgprb2; higher in mouse)	EC50 (mouse Mrgprb2; read-out: EC50 in mouse Mrgprb2-expressing cells)
O=C(O)c1cn(C2CC2)c2cc(N3CCNCC3)c(F)cc2c1=O [CPFX, ciprofloxacin]	concentration-dependent	ca. sevenfold	~45.3 µM and 43.8 µM	responded	induced nonspecific increase						
COc1c(N2CCNC(C)C2)c(F)cc2c(=O)c(C(=O)O)cn(C3CC3)c12 (centres unmarked) [GFLX, gatifloxacin]	concentration-dependent			responded		529 µM	210 µM				
C[C@H]1COc2c(N3CCN(C)CC3)c(F)cc3c(=O)c(C(=O)O)cn1c23 [LVFX, levofloxacin]	concentration-dependent	ca. sevenfold	~166 µM and 163 µM	responded		1060 µM		≥ 30 µg/mL			
C[C@H]1COc2c(C3(N)CC3)c(F)cc3c(=O)c(C(=O)O)cn1c23 [PZFX, pazufloxacin]	did not activate			did not activate					does not induce histamine release; also recorded: does not cause histamine release		
substance P										360 fold	54 µM
